Measurements from PubChem BioAssay AID2060491 (Molecular Pharmacology Branch, DTP, NCI, 2025).

Test system: 857933-349-R-J2-PDC complex spheroids, viability
Assay: Anticancer human tumor 857933-349-R-J2-PDC patient-derived colon adenocarcinoma cell line growth inhibition [GQUAD]
Conditions: for IC50: curve of first compound; for viability, T/C: stronger effect = lower value
Method in brief: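 Tumor cells were grown as complex spheroids with HUVEC endothelial cells and mesenchymal stem cells as stroma. G-quadruplex stabilizers were combined with targeted agents over half-log dilutions from near the clinical Cmax, or from 10 microM.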

[1] = second compound 0.0316 µM, first compound 0.0316 µM
[2] = second compound 0.0316 µM, first compound 0.1 µM
[3] = second compound 0.0316 µM, first compound 0.316 µM
[4] = second compound 0.0316 µM, first compound 1 µM
[5] = second compound 0.0316 µM, first compound 3.16 µM
[6] = second compound 0.0316 µM, first compound 10 µM
[7] = second compound 0.1 µM, first compound 0.0316 µM
[8] = second compound 0.1 µM, first compound 0.1 µM
[9] = second compound 0.1 µM, first compound 0.316 µM
[10] = second compound 0.1 µM, first compound 1 µM
[11] = second compound 0.1 µM, first compound 3.16 µM
[12] = second compound 0.1 µM, first compound 10 µM
[13] = second compound 0.316 µM, first compound 0.0316 µM
[14] = second compound 0.316 µM, first compound 0.1 µM
[15] = second compound 0.316 µM, first compound 0.316 µM
[16] = second compound 0.316 µM, first compound 1 µM
[17] = second compound 0.316 µM, first compound 3.16 µM
[18] = second compound 0.316 µM, first compound 10 µM
[19] = second compound 1 µM, first compound 0.0316 µM
[20] = second compound 1 µM, first compound 0.1 µM
[21] = second compound 1 µM, first compound 0.316 µM
[22] = second compound 1 µM, first compound 1 µM
[23] = second compound 1 µM, first compound 3.16 µM
[24] = second compound 1 µM, first compound 10 µM
[25] = second compound 3.16 µM, first compound 0.0316 µM
[26] = second compound 3.16 µM, first compound 0.1 µM
[27] = second compound 3.16 µM, first compound 0.316 µM
[28] = second compound 3.16 µM, first compound 1 µM
[29] = second compound 3.16 µM, first compound 3.16 µM
[30] = second compound 3.16 µM, first compound 10 µM
[31] = second compound 10 µM, first compound 0.0316 µM
[32] = second compound 10 µM, first compound 0.1 µM
[33] = second compound 10 µM, first compound 0.316 µM
[34] = second compound 10 µM, first compound 1 µM
[35] = second compound 10 µM, first compound 3.16 µM
[36] = second compound 10 µM, first compound 10 µM
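Note: spheroids exposed to compounds for one week before readout.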
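Throughout, for viability, T/C: percent viability relative to vehicle DMSO wells taken as 100%.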

With `COc1ncnc(C2CC2)c1-c1ncc2cnn(Cc3ccc(-c4nc(C(F)(F)F)cn4C(C)C)cc3)c2n1` + Cc1cnc(CNC(=O)c2c(=O)c3ccc(N4CCCN(C)CC4)nc3n3c2sc2ccccc23)cn1 the IC50 (second compound 0.0316 µM) was > 10000 nM, the IC50 (second compound 0.1 µM) was > 10000 nM and the IC50 (second compound 0.316 µM) was < 31.6 nM. The IC50 (second compound 1 µM) was < 31.6 nM, the IC50 (second compound 3.16 µM) was < 31.6 nM and the IC50 (second compound 10 µM) was < 31.6 nM. It also gave a viability, T/C [1] of 108%, a viability, T/C [2] of 80.5% and a viability, T/C [3] of 85.4%. For the same molecule, the viability, T/C [4] was 81.6%, the viability, T/C [5] was 85.1% and the viability, T/C [6] was 86%. The viability, T/C [7] was 55.2%, the viability, T/C [8] was 58.1% and the viability, T/C [9] was 50%. The viability, T/C [10] was 64.1%, the viability, T/C [11] was 67.2% and the viability, T/C [12] was 70%. The viability, T/C [13] was 19.1%, the viability, T/C [14] was 19.9% and the viability, T/C [15] was 17.7%. For the same molecule, the viability, T/C [16] was 22.1%, the viability, T/C [17] was 23.2% and the viability, T/C [18] was 18.1%. For the same molecule, the viability, T/C [19] was 3.57%, the viability, T/C [20] was 3.77% and the viability, T/C [21] was 3.91%. The viability, T/C [22] was 3.85%, the viability, T/C [23] was 4.62% and the viability, T/C [24] was 7.3%. For the same molecule, the viability, T/C [25] was 2.42%, the viability, T/C [26] was 2.35% and the viability, T/C [27] was 2.33%. The viability, T/C [28] was 2.58%, the viability, T/C [29] was 3.1% and the viability, T/C [30] was 2.88%. The viability, T/C [31] was 0.21%, the viability, T/C [32] was 0.29% and the viability, T/C [33] was 0.4%. The viability, T/C [34] was 0.43%, the viability, T/C [35] was 0.91% and the viability, T/C [36] was 0.42%.

`Cc1[nH]c2ccccc2c1CCNCc1ccc(/C=C/C(=O)NO)cc1` + Cc1cnc(CNC(=O)c2c(=O)c3ccc(N4CCCN(C)CC4)nc3n3c2sc2ccccc23)cn1 was tested, and the IC50 (second compound 0.0316 µM) was 267 nM, the IC50 (second compound 0.1 µM) was 155 nM and the IC50 (second compound 0.316 µM) was < 0.999 nM. The IC50 (second compound 1 µM) was < 0.999 nM, the IC50 (second compound 3.16 µM) was < 0.999 nM and the IC50 (second compound 10 µM) was < 0.999 nM. The viability, T/C (second compound 0.0316 µM, first compound 0.000999 µM) was 91%, the viability, T/C (second compound 0.0316 µM, first compound 0.00316 µM) was 93.7% and the viability, T/C (second compound 0.0316 µM, first compound 0.00999 µM) was 106%. It also gave a viability, T/C [1] of 86.5%, a viability, T/C (second compound 0.0316 µM, first compound 0.0999 µM) of 93.8% and a viability, T/C [3] of 42.5%. It also gave a viability, T/C (second compound 0.1 µM, first compound 0.000999 µM) of 51.7%, a viability, T/C (second compound 0.1 µM, first compound 0.00316 µM) of 65.6% and a viability, T/C (second compound 0.1 µM, first compound 0.00999 µM) of 65.6%. It also gave a viability, T/C [7] of 77%, a viability, T/C (second compound 0.1 µM, first compound 0.0999 µM) of 75.5% and a viability, T/C [9] of 22.2%. The viability, T/C (second compound 0.316 µM, first compound 0.000999 µM) was 20.1%, the viability, T/C (second compound 0.316 µM, first compound 0.00316 µM) was 27.2% and the viability, T/C (second compound 0.316 µM, first compound 0.00999 µM) was 28.9%. It also gave a viability, T/C [13] of 47.6%, a viability, T/C (second compound 0.316 µM, first compound 0.0999 µM) of 37.1% and a viability, T/C [15] of 3.64%. For the same molecule, the viability, T/C (second compound 1 µM, first compound 0.000999 µM) was 4.8%, the viability, T/C (second compound 1 µM, first compound 0.00316 µM) was 4.9% and the viability, T/C (second compound 1 µM, first compound 0.00999 µM) was 6.18%. For the same molecule, the viability, T/C [19] was 9.89%, the viability, T/C (second compound 1 µM, first compound 0.0999 µM) was 5.17% and the viability, T/C [21] was 0.17%. It also gave a viability, T/C (second compound 3.16 µM, first compound 0.000999 µM) of 2.36%, a viability, T/C (second compound 3.16 µM, first compound 0.00316 µM) of 3.21% and a viability, T/C (second compound 3.16 µM, first compound 0.00999 µM) of 2.34%. It also gave a viability, T/C [25] of 1.12%, a viability, T/C (second compound 3.16 µM, first compound 0.0999 µM) of 0.55% and a viability, T/C [27] of 0.15%. The viability, T/C (second compound 10 µM, first compound 0.000999 µM) was 0.3%, the viability, T/C (second compound 10 µM, first compound 0.00316 µM) was 0.24% and the viability, T/C (second compound 10 µM, first compound 0.00999 µM) was 0.43%. It also gave a viability, T/C [31] of 0.42%, a viability, T/C (second compound 10 µM, first compound 0.0999 µM) of 0.37% and a viability, T/C [33] of 0.26%.

In the case of `O=C(NO)c1cnc(N2CCN(S(=O)(=O)c3ccc4ccccc4c3)CC2)nc1` + Cc1cnc(CNC(=O)c2c(=O)c3ccc(N4CCCN(C)CC4)nc3n3c2sc2ccccc23)cn1, the IC50 (second compound 0.0316 µM) is reported as 538 nM, the IC50 (second compound 0.1 µM) is reported as 372 nM and the IC50 (second compound 0.316 µM) is reported as < 31.6 nM. For the same molecule, the IC50 (second compound 1 µM) was < 31.6 nM, the IC50 (second compound 3.16 µM) was < 31.6 nM and the IC50 (second compound 10 µM) was < 31.6 nM. The viability, T/C [1] was 95.5%, the viability, T/C [2] was 79.8% and the viability, T/C [3] was 79.5%. It also gave a viability, T/C [4] of 15.9%, a viability, T/C [5] of 0.04% and a viability, T/C [6] of 0.06%. The viability, T/C [7] was 65%, the viability, T/C [8] was 69.3% and the viability, T/C [9] was 56%. For the same molecule, the viability, T/C [10] was 11.7%, the viability, T/C [11] was 0.05% and the viability, T/C [12] was 0.08%. The viability, T/C [13] was 19.9%, the viability, T/C [14] was 24.9% and the viability, T/C [15] was 24.2%. For the same molecule, the viability, T/C [16] was 1.65%, the viability, T/C [17] was 0.03% and the viability, T/C [18] was 0.07%. It also gave a viability, T/C [19] of 4.31%, a viability, T/C [20] of 2.8% and a viability, T/C [21] of 1.46%. The viability, T/C [22] was 0.09%, the viability, T/C [23] was 0.04% and the viability, T/C [24] was 0.07%. It also gave a viability, T/C [25] of 1.32%, a viability, T/C [26] of 0.92% and a viability, T/C [27] of 0.23%. For the same molecule, the viability, T/C [28] was 0.12%, the viability, T/C [29] was 0.08% and the viability, T/C [30] was 0.09%. It also gave a viability, T/C [31] of 0.16%, a viability, T/C [32] of 0.2% and a viability, T/C [33] of 0.2%. It also gave a viability, T/C [34] of 0.14%, a viability, T/C [35] of 0.15% and a viability, T/C [36] of 0.18%.
